# Active and inactive are the calls of the source. The rule behind the calls is not given here. Bridge positions count the residues as written; N and C are the ends. Square brackets hold non-standard residues; d marks the D form. Peptide text beside a SMILES is read from it. pGlu = O=C1CC[C@@H](C(=O)O)N1
# Columns and labels:
# [1] = Inhibition of bovine pancreas trypsin using N-alpha-benzoyl-L-arginine-pnitroanilide substrate preincubated for 15 mins followed by substrate addition and measured after 30 mins; assay type: tissue-based, Bos taurus
# Bos taurus = organism: Bos taurus; test: Inhibition of bovine pancreas trypsin at 0.01 to 8 uM using N-alpha-benzoyl-L-arginine-pnitroanilide substrate preincubated for 15 mins followed by substrate addition and measured after 30 mins; assay type: tissue-based; conditions: dose microM 0.01-8, time 45.0 min
IC50 [1] [nM],SMILES,inhibition (Bos taurus)
400,"CSCC[C@@H]1NC(=O)[C@H](C(C)C)NC(=O)[C@H](CCCCN)NC(=O)[C@@H](NC(=O)[C@H](CCC(N)=O)NC(=O)[C@H](CCC(=O)O)NC(=O)[C@@H]2CCCN2C(=O)[C@H](CC(=O)O)NC(=O)[C@@H](NC(=O)[C@@H](N)CC(N)=O)[C@@H](C)O)CSSC[C@@H](C(=O)N[C@@H](CCC(=O)O)C(=O)N[C@@H](CCCCN)C(=O)N[C@@H](CCC(=O)O)C(=O)N[C@@H](Cc2c[nH]cn2)C(=O)N[C@@H](CC(=O)O)C(=O)O)NC(=O)[C@H](CCC(N)=O)NC(=O)[C@H](CC(=O)O)NC(=O)[C@H](CC(C)C)NC(=O)[C@@H]2CSSC[C@H](NC1=O)C(=O)N[C@@H](Cc1ccc(O)cc1)C(=O)N[C@@H](C)C(=O)N[C@@H](CCC(N)=O)C(=O)N[C@@H](CCCNC(=N)N)C(=O)N[C@@H](Cc1c[nH]cn1)C(=O)N[C@@H](CO)C(=O)N[C@@H](CO)C(=O)N1CCC[C@H]1C(=O)N[C@@H](CCC(=O)O)C(=O)N[C@@H](CC(C)C)C(=O)N[C@@H](CC(C)C)C(=O)N[C@@H](CCCNC(=N)N)C(=O)N[C@@H](CCCNC(=N)N)C(=O)N2 (H-NTDPEQCKVMCYAQRHSSPELLRRCLDQCEKEHD-OH; disulfide 7-29, 11-25)",–
–,"CC[C@H](C)[C@H](NC(=O)[C@H](CCC(N)=O)NC(=O)[C@H](CCCNC(=N)N)NC(=O)[C@H](CCCCN)NC(=O)[C@@H]1CCCN1)C(=O)N[C@@H](CCC(=O)O)C(=O)N[C@@H](CCCNC(=N)N)C(=O)N[C@H]1CSSC[C@@H](C(=O)N[C@@H](CCC(=O)O)C(=O)N[C@@H](CCC(=O)O)C(=O)N[C@@H](CCC(N)=O)C(=O)N[C@@H](CCC(=O)O)C(=O)N[C@@H](CCC(=O)O)C(=O)N[C@@H](CCCCN)C(=O)N[C@@H](CCCNC(=N)N)C(=O)NCC(=O)N[C@@H](CCC(N)=O)C(=O)NCC(=O)N[C@@H](CC(=O)O)C(=O)O)NC(=O)[C@H](CCC(N)=O)NC(=O)[C@H](CCCNC(=N)N)NC(=O)[C@H](C(C)C)NC(=O)[C@@H]2CSSC[C@H](NC(=O)[C@H](CCC(=O)O)NC(=O)[C@H](CCC(N)=O)NC(=O)[C@H](CCCCN)NC1=O)C(=O)N[C@@H](CCCNC(=N)N)C(=O)N[C@@H](CCC(=O)O)C(=O)N[C@@H](CO)C(=O)N[C@@H](CCCNC(=N)N)C(=O)N[C@@H](CCC(N)=O)C(=O)NCC(=O)N[C@@H](CCC(=O)O)C(=O)N[C@@H](CCC(N)=O)C(=O)N[C@@H](CCC(N)=O)C(=O)N[C@@H](CCC(=O)O)C(=O)N[C@@H](CCCNC(=N)N)C(=O)N[C@@H](CCC(N)=O)C(=O)N2 (H-PKRQIERCKQECRESRQGEQQERQCVRQCEEQEEKRGQGD-OH; disulfide 8-29, 12-25)",inactive
–,"CC[C@H](C)[C@H](NC(=O)[C@H](CCC(=O)O)NC(=O)[C@@H](NC(=O)[C@H](CCC(=O)O)NC(=O)[C@H](CCCCN)NC(=O)[C@@H]1CCC(=O)N1)[C@@H](C)O)C(=O)N[C@H]1CSSC[C@@H](C(=O)N[C@@H](CCC(=O)O)C(=O)N[C@@H](CCC(=O)O)C(=O)N[C@@H](CCCNC(=N)N)C(=O)N[C@@H](CC(C)C)C(=O)N[C@@H](CCCNC(=N)N)C(=O)N[C@@H](CC(=O)O)C(=O)O)NC(=O)[C@H](CCC(=O)O)NC(=O)[C@H](CCC(N)=O)NC(=O)[C@H](CCC(N)=O)NC(=O)[C@@H]2CSSC[C@H](NC(=O)[C@H](Cc3c[nH]c4ccccc34)NC(=O)[C@H](CCC(N)=O)NC(=O)[C@H](CCCNC(=N)N)NC1=O)C(=O)N[C@@H](CCC(N)=O)C(=O)N[C@@H](C(C)C)C(=O)N[C@@H](CCSC)C(=O)N[C@@H](CCCCN)C(=O)N1CCC[C@H]1C(=O)N[C@@H](CCC(N)=O)C(=O)NCC(=O)NCC(=O)N[C@@H](CCC(=O)O)C(=O)N[C@@H](CCC(=O)O)C(=O)N[C@@H](CCC(N)=O)C(=O)N[C@@H](CCCNC(=N)N)C(=O)N[C@@H](CCCNC(=N)N)C(=O)N2 ([pGlu]KETEICRQWCQVMKPQGGEEQRRCQQECEERLRD-OH; disulfide 7-29, 11-25)",inactive

# Source: ChEMBL document CHEMBL4699531, “Defining the Familial Fold of the Vicilin-Buried Peptide Family” (J Nat Prod, 2020)
